Reference: US6132740A, “Resorcinol derivatives” (Pfizer Inc., priority 1998, dated 2000)
Where “and” joins values, the source holds several entries; their conditions need not be identical. Equal values may be shown once.

How the values were obtained:
human tyrosinase = biological target: T1, human tyrosinase (Homo sapiens, UniProt P14679); assay: Tyrosinase (DOPA oxidase) assay using cell lysate; format: biochemical; conditions: SKMEL 188 human melanoma cell lysate, L-DOPA 100 μg/ml, 8 hours, read at 405 nm
T1 construct: endogenous in cells; host or cells: SKMEL 188 human melanoma cell line (licensed from Memorial Sloan-Kettering), lysate
T1 sequence (P14679 19-529): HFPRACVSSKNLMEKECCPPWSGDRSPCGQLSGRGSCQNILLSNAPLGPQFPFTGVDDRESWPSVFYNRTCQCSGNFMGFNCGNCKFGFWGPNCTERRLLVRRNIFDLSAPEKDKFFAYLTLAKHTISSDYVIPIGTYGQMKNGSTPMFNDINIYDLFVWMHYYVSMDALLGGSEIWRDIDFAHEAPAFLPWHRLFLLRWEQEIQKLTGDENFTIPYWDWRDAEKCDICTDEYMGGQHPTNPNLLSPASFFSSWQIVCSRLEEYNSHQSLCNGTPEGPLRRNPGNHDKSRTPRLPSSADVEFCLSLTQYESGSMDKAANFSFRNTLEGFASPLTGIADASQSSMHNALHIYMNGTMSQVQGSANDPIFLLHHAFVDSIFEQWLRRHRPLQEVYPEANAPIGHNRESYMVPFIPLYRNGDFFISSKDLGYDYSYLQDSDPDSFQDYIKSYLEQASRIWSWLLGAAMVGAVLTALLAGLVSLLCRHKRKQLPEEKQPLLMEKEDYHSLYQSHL
Description: 1. Tyrosinase (DOPA oxidase) Assay Using Cell Lysate:
Human melanoma cell line, SKMEL 188 (licensed from Memorial Sloan-Kettering), is used in the cell lysate assay and the screen. In the assay, compounds and L-dihydroxyphenylalanine (L-DOPA) (100 μg/ml) are incubated with the cell lysates containing human tyrosinase for 8 hours before the plates are read at 405 nm. Potency of the compounds in DOPA oxidase assay is correlated very well with that in tyrosine hydroxylase assay using 3H-tyrosine as a substrate.

black guinea pigs = assay: In vivo depigmentation study in black guinea pigs; parameters: species or system guinea pig; conditions: for depigmentation of skin (in words): 5% in ethanol:propylene glycol 70:30, twice daily, 5 days per week for 4-8 weeks, black or dark brown guinea pigs; for reduction of pigmentation in treated ears (in words) / reversibility of the depigmentation effect (in words) / Depigmentation effect, Δ light reflectance (treated ear - untreated ear), 1 week post-treatment / Depigmentation effect, Δ light reflectance (treated ear - untreated ear), 3-week / Depigmentation effect, Δ light reflectance (treated ear - untreated ear), 6-week / Depigmentation effect, Δ light reflectance (treated ear - untreated ear), 8.5 week: 5% in ethanol:propylene glycol (70:30); for reduction of pigmentation in treated ears (in words) / reversibility of the depigmentation effect (in words): ears of black guinea pigs; for reversibility of the depigmentation effect (in words): after ceasing treatment; for Depigmentation effect, Δ light reflectance (treated ear - untreated ear), 1 week post-treatment / Depigmentation effect, Δ light reflectance (treated ear - untreated ear), 3-week / Depigmentation effect, Δ light reflectance (treated ear - untreated ear), 6-week / Depigmentation effect, Δ light reflectance (treated ear - untreated ear), 8.5 week: topical to ears of black guinea pigs, one value per animal; for Depigmentation effect, Δ light reflectance (treated ear - untreated ear), 3-week / Depigmentation effect, Δ light reflectance (treated ear - untreated ear), 6-week / Depigmentation effect, Δ light reflectance (treated ear - untreated ear), 8.5 week: positive value indicates depigmentation
Description: Black or dark brown guinea pigs with homogeneous skin color can be used in this study. A solution of the test compound of formula I (5% in ethanol:propylene glycol, 70:30) and the vehicle control are applied to the animals twice daily, 5 days per week for 4-8 weeks.
In vivo experiments were carried out to determine the depigmenting effects of 4-cyclohexylresorcinol and 4-cyclopentylresorcinol using the assay described above (in vivo study). Thus, 5% 4-cyclohexylresorcinol and 5% 4-cyclopentylresorcinol, each in ethanol:propylene glycol (70:30), were administered separately to the ears of black guinea pigs. Depigmentation was determined by subtracting the light reflectance of untreated ears from the light reflectance of treated ears.

Row | SMILES | IC50 (human tyrosinase) [nM] | depigmentation of skin (in words) (black guinea pigs) | reduction of pigmentation in treated ears (in words) (black guinea pigs) | reversibility of the depigmentation effect (in words) (black guinea pigs) | Depigmentation effect, Δ light reflectance (treated ear - untreated ear), 1 week post-treatment (black guinea pigs) | Depigmentation effect, Δ light reflectance (treated ear - untreated ear), 3-week (black guinea pigs) | Depigmentation effect, Δ light reflectance (treated ear - untreated ear), 6-week (black guinea pigs) | Depigmentation effect, Δ light reflectance (treated ear - untreated ear), 8.5 week (black guinea pigs)
1 | Oc1ccc(C2CCCCC2)c(O)c1 [4-cyclohexylresorcinol, 4-Cyclohexylresorcinol] | 300 | depigmentation of skin was visualized | reduced pigmentation in treated ears starting 3 weeks after initial treatment | reversible, and repigmentation partially resumed one week after ceasing treatment | 1 and 0 | 13 and 0 and 14 and 3 | 8 and 0 and 14 and 7 | 6 and 7 and 19
2 | Oc1ccc(C2CCCC2)c(O)c1 [4-cyclopentylresorcinol, 4-Cyclopentylresorcinol] | – | depigmentation of skin was visualized | reduced pigmentation in treated ears starting 3 weeks after initial treatment | reversible, and repigmentation partially resumed one week after ceasing treatment | 6 | 15 and 9 and 4 | 12 and 9 | 10 and 18 and 7
